Data published in patent US6762052B1, “DNA sequence encoding flavin-containing monooxygenase” (priority 1993, dated 2004).
“Also recorded” adds a separate entry of the source.

Molecular target: T1, adult human liver flavin-containing monooxygenase (form 3) (Homo sapiens, UniProt P31513, E158K)
T1 sequence (P31513 1-532 E158K): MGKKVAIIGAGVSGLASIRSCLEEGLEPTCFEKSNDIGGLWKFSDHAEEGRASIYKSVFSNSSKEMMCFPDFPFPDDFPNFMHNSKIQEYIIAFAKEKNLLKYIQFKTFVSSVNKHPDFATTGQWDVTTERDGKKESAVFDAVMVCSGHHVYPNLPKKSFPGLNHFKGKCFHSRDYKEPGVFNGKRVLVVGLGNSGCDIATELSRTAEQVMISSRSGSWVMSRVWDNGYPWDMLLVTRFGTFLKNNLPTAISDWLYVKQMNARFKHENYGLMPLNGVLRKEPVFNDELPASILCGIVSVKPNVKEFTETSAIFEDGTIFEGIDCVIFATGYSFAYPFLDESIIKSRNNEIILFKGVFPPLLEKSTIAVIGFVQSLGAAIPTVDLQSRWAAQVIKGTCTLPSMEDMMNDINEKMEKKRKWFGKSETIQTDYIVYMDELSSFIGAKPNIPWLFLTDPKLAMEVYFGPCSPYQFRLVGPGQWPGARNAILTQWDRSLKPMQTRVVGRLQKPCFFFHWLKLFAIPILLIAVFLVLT
Assay: N- and S-oxygenation by cDNA-expressed HLFMO 3 (solubilized protein from E. coli transformed with pTrcHLFMO 3), HPLC
Method: In all cases examined, product formation was directly determined by HPLC analysis of organic extracts.
Competent NM522 Escherichia coli cells were transformed with the pTrc HLFMO 3 plasmid. […] After inoculation with a fresh overnight culture of NM522 containing pTrcHLFMO 3, the culture was grown at 37° C. until Abs600 was approximately 0.5 absorbance units. Finally, IPTG (0.8 mM) was added to the culture to induce expression of protein and the culture was left to grow overnight at 37° C.
The bacterial pellet was resuspended in 5 volumes of 50 mM potassium phosphate buffer (pH 8.4) containing 1% Triton X-100, 0.1% L-, α-phosphatidylcholine (L-α-lecithin) from egg yolk, 500 μM PMSF, and 1 mM EDTA. The mixture was sonicated and then centrifuged to remove cellular debris. As a control, bacterial lysate extracts from IPTG-induced pTrc99A-transformed NM522 cells (i.e., pTrc99A without the HLFMO 3 cDNA insert) were prepared under the same conditions.
Human liver samples were obtained from the Department of Surgery (UCSF) and with a protocol from the Medical College of Wisconsin (S. Wrighton).
A typical incubation mixture (final volume 0.25 ml) contained hepatic microsomes (0.4 mg of protein) or bacterial lysate (2.3 mg of protein), NADP^+ (0.5 mM), glucose-6-phosphate (2.0 mM), glucose-6-phosphate dehydrogenase (1 IU), DETAPAC (0.8 mM) and potassium phosphate buffer (50 mM, pH 8.4). Reactions were initiated by the addition of substrate and terminated at designated times by the addition of three volumes of cold dichloromethane, mixed thoroughly and centrifuged to separate the aqueous and organic fractions. N- and S-oxide metabolic products in the resulting organic extracts were separated and quantified by HPLC. […] Thiobenzamide and thiobenzamide S-oxide were quantified with this same, HPLC system employing a mobile phase of methanol/acetonitrile/60% perchloric acid (20:80:0.016, v/v) which gave retention volumes of 2.7 and 7.0 ml, respectively. […] The major metabolites formed in the incubations were also subjected to mass spectral analysis after extraction of isolated HPLC fractions.
RPLC of the S-oxide diastereomers with a Chiracel OT chiral analytical column (25 cm×0.15 cm inner diameter, Daicel Chemical Co., New York, N.Y.) was accomplished with a Beckman system, Kratos UV detector (240 nm) and a Hewlett Packard Integrator. […] Quantification was accomplished by comparing integrated HPLC peak areas after taking into account the difference in the extinction coefficients at 240 nm. Likewise, the cis and trans S-oxide diasteromers of (+)- and (−)-2-methyl-1,-benzodithiole were separated with a Chiracel OT chiral analytical column.

## CN(C)CCCCCN1c2ccccc2Sc2ccc(C(F)(F)F)cc21 [Compound 5]
0.1 mM substrate, mean of 5 determinations ± SD
  N-oxide formation, Expressed HFLMO: 200.0 ± 45.7 pmol/min/mg of protein
100,000×g pellet
  N-oxygenase activity in the pellet: 0.043 nmol/min/mg of protein
  share of N-oxygenase activity in the pellet: 16%
100,000×g supernatant
  share of N-oxygenase activity in the supernatant fraction: 84%
100,000×g supernatant of solubilized recombinant HLFMO 3 protein
  N-oxygenase activity in the supernatant fraction: 0.23 nmol/min/mg of protein
N- or S-oxide formation, for the 4-bromophenyl-1,3-oxathiolanes formation of the trans S-oxide
  Vmax, Expressed HLFMO: 0.023 nmol/min/mg of protein
Human liver microsomes and solubilized protein from E. coli transformed with pTrcHLFMO 3
  substrate activity for human liver microsomes and expressed HLFMO 3, in words: better substrates; also recorded: excellent substrates
read-out: Km, Expressed HLFMO, N- or S-oxide formation, for the 4-bromophenyl-1,3-oxathiolanes formation of the trans S-oxide
  Km: 64.6 µM
